# Assay results reported in article PMC5123277, “Cloning, functional expression and characterization of a bifunctional 3-hydroxybutanal dehydrogenase /reductase involved in acetone metabolism by Desulfococcus biacutus” (BMC Microbiology, 2016).
# Test system: T1, Debia-MDR
# T1 construct: gene DebiaDRAFT_04514; full-length, N-terminal His6-tag (pET100, tag kept), E. coli Rosetta 2 (DE3); monomer 38,272 Da predicted, approx. 41 kDa with tag; native about 170 kDa, homotetramer; forward primer […]; (N-terminus MAKMMKT by translation)
# Assay: spectrophotometric NADH consumption at […] nm
# Type: biochemical, Desulfococcus biacutus
# Details: reduction direction, NADH co-substrate (0.1 mM in the general assay); 50 uM ZnCl2, 3 mM DTT, anoxic; general assay 25 mM MOPS pH 7.2, 30 °C
smiles,measurement,value
CC(C)=O [acetone],Km,40 µM
